From patent publication US12083092B2, “Antiviral 1,3-di-oxo-indene compounds” (Novartis AG, priority 2020, dated 2024)

What was measured:
HRV B14 = assay: CPE inhibition assay, HRV B14; type: cell-based; details: Human rhinovirus sp.
HRV A16 = assay: CPE inhibition assay, HRV A16; type: cell-based; details: Human rhinovirus sp., read-out: A16_CPE (EC50 μM)
[1] = Cytotoxicity in mock-infected cells (MTT/MTS); type: cell-based; details: human, read-out: CYTOTOX (EC50 μM)
Protocol: In the assay, HeLa (human cervical cancer cells), MRC-5 (human fetal lung fibroblast cells), and RD cells (derived from human rhabdomyosarcoma) were employed. For comparison, ribavirin (Riv), Pleconaril (pleco), and BTA-798 (BTA) were used as controls. Reagents were dissolved at a concentration of 10-40 mg/ml in 100% dimethyl sulfoxide (DMSO). Water-soluble reagents were dissolved in PBS (−) solution and stored at −20° C. On the day of the experiment, they were used in 3 fold to 5 fold concentrations in such a manner that the concentration of dimethyl sulfoxide in each well was between 0.5% and 1%.
For HeLa cells, the drugs were measured for EC50 (50% maximal effective concentration), which is the concentration of a drug inducing a response halfway between the baseline and maximum, using an MTT assay. With regard to RD and MRC-5 cells, CPE was determined using FDA (Fluorescein diacetate) or MTT. In order to determine the effect of drug toxicity on efficacy results, at the time of inoculation with the virus, mock-infection was also included. A virus-free medium was added to a cell culture, which was then subjected to the same treatment as the virus-infected cells inoculated with the virus. That is, the medium was removed after one hour of incubation, and dilutions of drugs in the medium were added once more. Following incubation for 2-3 days, the cells were observed under a microscope and the drugs were determined for CC50 (50% cytotoxic concentration) at which 50% of the cells were killed, using an MTT assay in which counts of viable cells in mock-infected wells containing drugs were compared to those of viable cells in control wells containing no drugs. In an FDA hydrolysis assay, FDA was added to each well after removal of the medium, and incubated for 20-30 min before fluorescence intensity was measured using a spectrofluorometer to determine CPE in the same manner as in MTT.
That is, the survival rate (% survival) of mock-infected cells for cytotoxicity measurement was calculated using the Mathematical Formula 1 below: Cell Drug=Survival by [A (Drug)−A (Background solution)/A (Cell control)−(Background×100% Solution)]
While 100% cell survival means no cytotoxicity of the drug, the highest cytotoxicity is reflected by 0% cell survival. The 50% cytotoxic concentration was defined as the concentration required to reduce the cell number by 50%. This concentration of the drug is represented as CC50. Higher values mean lower cytotoxicity.
The % CPE value for measuring cytotoxicity of a drug was calculated by Mathematical Formula 4 below: % CPE=100×[OD (CC)−OD (Virus+Compound)/OD (CC)−OD (Blank)] In Mathematical Formulae 3 and 4 above, • OD (CC) represents the OD of the background cell culture that is neither induced by a virus nor treated by chemical, • OD (VC) represents the OD of the control cell culture that is induced by a virus but not treated by chemical, • OD (Virus+Compound) represents the OD of the cell culture infected by a virus that has been treated with a concentrated compound, • OD (Compound) represents the OD of the cell culture that has been treated with a concentrated compound only, and OD (Blank) represents the OD of the well to which only the cell culture has been added.
The effective concentration (EC50) represents the concentration of a drug at which 50% of cells are allowed to survive by CPE of an induced virus, and the cytotoxicity concentration (CC50) represents the concentration of a drug at which a compound has killed 50% of cells, and they were calculated by the logarithmic interpolation.

C15_C3 REP = details: human, C15 C3 REP (cell-based assay)
[2] = system: coxsackievirus B4 (Cox B4); assay: CPE inhibition assay, coxsackievirus B4; type: cell-based; details: Enterovirus B
poliovirus 1 (PV1) = assay: microbe, parasite or virus in culture; type: cell-based; details: Enterovirus C, read-out: PV1 (EC50 μM)
[3] = system: 48 rhinovirus types and coxsackievirus A21. B3, enterovirus 70 and echovirus 11; details: coxsackievirus A21, B3, enterovirus 70, echovirus 11; cited from earlier work
[4] = cited from earlier work
[5] = in vivo, cited from earlier work
[6] = in vivo; cited from earlier work
[7] = in vivo; cited from earlier work; remark: listed apart in the source

Compound | EC50 (HRV B14) | EC50 (HRV A16) | CC50 [1] | CC50 (C15_C3 REP) | EC50 [2] | EC50 (poliovirus 1 (PV1)) | other results
CC(=O)NC12C(=O)c3c(N)cccc3C1(O)Oc1cc(C(F)(F)F)ccc12 (racemic) [Example 3, N-(1-amino-4b-hydroxy-10-oxo-7-(trifluoromethyl)-4b,10-dihydro-9bH-indeno[1,2-b]benzofuran-9b-yl)acetamide] | 0.019 µM | 50 µM | ≥ 50 µM | 21400 nM | 0.00201 µM |  | 
CC(=O)NC12C(=O)c3c(N)cccc3C1(O)Oc1cc(C3CC3)ccc12 (racemic) [Example 7, N-(1-amino-7-cyclopropyl-4b-hydroxy-10-oxo-4b,10-dihydro-9bH-indeno[1,2-b]benzofuran-9b-yl)acetamide] | 0.016 µM | 14.7 µM | ≥ 50 µM | 50000 nM | 0.00168 µM |  | 
CC(=O)NC12C(=O)c3c(N)cccc3C1(O)Oc1cc(OC(F)(F)F)ccc12 (racemic) [Example 10, N-(1-amino-4b-hydroxy-10-oxo-7-(trifluoromethoxy)-4b,10-dihydro-9bH-indeno[1,2-b]benzofuran-9b-yl)acetamide] | 0.056 µM | 39.8 µM | ≥ 50 µM | 50000 nM | 0.00303 µM | 0.335 µM | 
CC(=O)NC12C(=O)c3c(N)cccc3C1(O)Oc1cc(Cl)ccc12 (racemic) [Example 13, N-(1-amino-7-chloro-4b-hydroxy-10-oxo-4b,10-dihydro-9bH-indeno[1,2-b]benzofuran-9b-yl)acetamide] |  |  | ≥ 50 µM |  | 0.00267 µM | 0.295 µM | 
CC(=O)NC12C(=O)c3c(N)cccc3C1(O)Oc1cc(C)ccc12 (racemic) [Example 16, N-(1-amino-4b-hydroxy-7-methyl-10-oxo-4b,10-dihydro-9bH-indeno[1,2-b]benzofuran-9b-yl)acetamide] | 0.076 µM | 50 µM | ≥ 50 µM |  | 0.00374 µM |  | 
CC(=O)NC12C(=O)c3c(N)cccc3C1(O)Oc1ccc(C)cc12 (racemic) [Example 19, N-(1-amino-4b-hydroxy-8-methyl-10-oxo-4b,10-dihydro-9bH-indeno[1,2-b]benzofuran-9b-yl)acetamide] | 0.666 µM | 50 µM | ≥ 50 µM | 25000 nM | 0.00871 µM | 3.24 µM | 
CC(=O)N[C@]12C(=O)c3c(N)cccc3[C@@]1(O)Oc1cc(C(C)C)ccc12 (single isomer, unassigned) [Example 1] | 0.016 µM | 1.89 µM | ≥ 50 µM | 35100 nM | 0.00061 µM | 0.015 µM | 
CC(=O)N[C@]12C(=O)c3c(N)cccc3[C@@]1(O)Oc1cc(C(F)(F)F)ccc12 (single isomer, unassigned) [Example 4] |  |  | ≥ 50 µM |  | 0.00059 µM | 0.041 µM | 
CC(=O)N[C@@]12C(=O)c3c(N)cccc3[C@]1(O)Oc1cc(C(F)(F)F)ccc12 (single isomer, unassigned) [Example 5] |  |  | ≥ 50 µM | 25000 nM | 0.0442 µM | 9.22 µM | 
CC(=O)N[C@]12C(=O)c3c(N)cccc3[C@@]1(O)Oc1cc(C3CC3)ccc12 (single isomer, unassigned) [Example 8] | 0.025 µM | 7.85 µM | ≥ 50 µM | 50000 nM | 0.00093 µM | 0.028 µM | 
CC(=O)N[C@@]12C(=O)c3c(N)cccc3[C@]1(O)Oc1cc(C3CC3)ccc12 (single isomer, unassigned) [Example 9] | 3.21 µM | 50 µM | ≥ 50 µM | 50000 nM | 0.0862 µM |  | 
CC(=O)N[C@]12C(=O)c3c(N)cccc3[C@@]1(O)Oc1cc(OC(F)(F)F)ccc12 (single isomer, unassigned) [Example 11] |  |  | ≥ 50 µM |  | 0.0011 µM |  | 
CC(=O)N[C@@]12C(=O)c3c(N)cccc3[C@]1(O)Oc1cc(OC(F)(F)F)ccc12 (single isomer, unassigned) [Example 12] | 0.016 µM | 1.89 µM | ≥ 50 µM |  | 0.188 µM | 0.015 µM | 
CC(=O)N[C@]12C(=O)c3c(N)cccc3[C@@]1(O)Oc1cc(Cl)ccc12 (single isomer, unassigned) [Example 14] |  |  | ≥ 50 µM |  | 0.00182 µM |  | 
CC(=O)N[C@@]12C(=O)c3c(N)cccc3[C@]1(O)Oc1cc(Cl)ccc12 (single isomer, unassigned) [Example 15] |  |  | ≥ 50 µM | 25000 nM | 0.29 µM |  | 
CC(=O)N[C@]12C(=O)c3c(N)cccc3[C@@]1(O)Oc1cc(C)ccc12 (single isomer, unassigned) [Example 17] |  |  | ≥ 50 µM |  | 0.00174 µM | 0.11 µM | 
CC(=O)N[C@@]12C(=O)c3c(N)cccc3[C@]1(O)Oc1cc(C)ccc12 (single isomer, unassigned) [Example 18] |  |  | ≥ 50 µM | 25000 nM | 0.383 µM |  | 
CC(=O)N[C@]12C(=O)c3c(N)cccc3[C@@]1(O)Oc1ccc(C)cc12 (single isomer, unassigned) [Example 20] |  |  | ≥ 50 µM |  | 0.00443 µM | 2.17 µM | 
COc1ccc2c(c1)O[C@]1(O)c3cccc(N)c3C(=O)[C@]21NC(C)=O (single isomer, unassigned) [Example 23] |  |  | ≥ 50 µM |  | 0.00293 µM |  | 
CCOC(=O)/C=C/[C@H](C[C@@H]1CCNC1=O)NC(=O)[C@@H](CC(=O)[C@@H](NC(=O)c1cc(C)on1)C(C)C)Cc1ccc(F)cc1 [AG 7088] |  |  |  |  |  |  | effect in the cell culture [3]: nanomolar concentration range
CC(C)S(=O)(=O)n1c(N)nc2ccc(/C(=N/O)c3ccccc3)cc21 [Enviroxime] |  |  |  |  |  |  | therapeutic effects in clinical studies ([4]; clinical studies): insignificant or few therapeutic effects; pharmacokinetics in clinical studies ([4]; in vivo): bad pharmacokinetics; side effects in clinical studies ([4]; in vivo): unwanted side effects
CC(=O)N[C@]12C(=O)c3c(N)cccc3[C@@]1(O)Oc1cc(Br)ccc12 [Example 6, N-((4bR,9bR)-1-amino-7-bromo-4b-hydroxy-10-oxo-4b,10-dihydro-9bH-indeno[1,2-b]benzofuran-9b-yl)acetamide] | 0.049 µM | 43.3 µM | ≥ 50 µM | 50000 nM | 0.00098 µM |  | 
CC(=O)N(C)C12C(=O)c3c(N)cccc3C1(O)Oc1cc(C(F)(F)F)ccc12 (stereo not shown) [Example 21, N-(1-amino-4b-hydroxy-10-oxo-7-(trifluoromethyl)-4b,10-dihydro-9bH-indeno[1,2-b]benzofuran-9b-yl)-N-methylacetamide] |  |  | ≥ 50 µM | 25000 nM | 0.0032 µM |  | 
Cc1cc(CCCOc2c(C)cc(-c3noc(C(F)(F)F)n3)cc2C)on1 [Pleconaril] |  |  |  |  |  |  | oral bioavailability ([5]; po): very good oral bioavailability
Cc1cc(CCCCCOc2c(Cl)cc(C3=NCCO3)cc2Cl)on1 [WIN 54954] |  |  |  |  |  |  | metabolization and excretion [6]: rapid metabolization and excretion; side effects [7]: skin rash
CCC(=O)C(CCCCCCOc1ccc(OC)cc1Cl)C(=O)CC [arildone] |  |  |  |  |  |  | bioavailability [5]: low bioavailability
Cc1cc(CCCCCCCOc2ccc(C3=NCCO3)cc2)on1 [disoxaril] |  |  |  |  |  |  | metabolization and excretion [6]: rapid metabolization and excretion; bioavailability [5]: low bioavailability
